This data set is described as follows: gradient 5% acetonitrile 3 min, to 50% in 2 min, to 85% in 15 min, held 3 min, 100 µL/min. The note with it: column: Zorbax Extend-C18 2.1 x 50 mm; eluents: water / acetonitrile, 0.1% formic acid. The essentials: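 Retention times of pure standards were taken from adduct peaks that were selected by computer and manually inspected. Over 3 months, mixtures of ~100 molecules were run by HPLC–quadrupole time-of-flight mass spectrometry in positive and negative ionization mode. The Zorbax Extend-C18 column (2.1 × 50 mm, 1.8 μm) ran at 100 μL/min in water and acetonitrile, each containing 0.1% formic acid, with 40 μL dead volume and 900 μL dwell volume.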
`COCCCNCc1c(C(=O)O)c(C)n(Cc2ccccc2Cl)c1C` returned an RP-LC retention time of 688 s.

`CNC(=O)c1cc2n(n1)CCCN(Cc1ccc(C)cc1)C2=O` gave an RP-LC retention time of 699 s.

With `COc1ccc(CCC(=O)Nc2nc(-c3ccc(Cl)cc3)cs2)cc1`, the RP-LC retention time was 1120 s.

The compound `CN(CC(=O)N1CC=C(c2ccccc2)CC1)S(=O)(=O)c1ccc2c(c1)CCCC(=O)N2` had an RP-LC retention time of 746 s.

In the case of `CCN1C(=O)C2CC3(CCN(C(=O)C4CCCCC4)CC3)CN2C1=O` (stereo not drawn), the RP-LC retention time was determined as 738 s.

`O=C(Nc1cc(-c2ccccn2)no1)c1ccc2ccccc2n1` gave an RP-LC retention time of 965 s.

Take `Cc1cc(C(=O)NCc2ccccn2)c2cc(Br)ccc2n1`: the RP-LC retention time came to 591 s.

The compound `Cc1oc2ncnc(N3CCCC(C(=O)NCc4cccc(Cl)c4)C3)c2c1C` (stereo not drawn) showed an RP-LC retention time of 920 s.

In turn, `Cc1ccc(CN2CCN(CC(=O)N3CCN(c4cccc(Cl)c4)CC3)C(=O)C2=O)cc1` displayed an RP-LC retention time of 866 s.

With `Cn1c(C(=O)N2CCN(c3ccccn3)CC2)cc2cc(S(=O)(=O)N3CCCCC3)ccc21`, the RP-LC retention time stood at 699 s.

Compound `O=C(NCC(O)c1ccsc1)C1(c2ccccc2)CCOCC1` (stereo not drawn) gave an RP-LC retention time of 667 s.

Turning to `Cc1ccc(CN(C(=O)c2ccc(OCC(C)C)cc2)C2CCS(=O)(=O)C2)o1` (stereo not drawn), the RP-LC retention time was 1060 s.

In turn, `CCCn1cnc2cc(-c3noc(CNC(=O)c4ccc(C)cc4)n3)ccc21` displayed an RP-LC retention time of 687 s.

As to `Cc1cccc(NS(=O)(=O)c2cc(-c3cc(C(F)(F)F)on3)sc2C)c1`, the RP-LC retention time is 1150 s.

In the case of `O=C(Nc1c(-c2ccc(F)cc2)nc2ccccn12)c1ccc(Cl)c([N+](=O)[O-])c1`, the RP-LC retention time was determined as 733 s.

Take `CCC(=O)N1CCc2c([nH]c3ccccc23)C12C(=O)N(C)c1ccc(Br)cc12` (stereo not drawn): the RP-LC retention time amounted to 939 s.

The compound `COC(=O)c1ccc(-c2csc(NC(=O)C3CCCC3)n2)cc1` showed an RP-LC retention time of 942 s.

For the compound `Cc1cc(C)cc(Nc2nc3ccncc3n(C(C)C)c2=O)c1`, the RP-LC retention time was determined as 745 s.

Consider `COc1ccc(CCc2nc3nccc(-c4ccc(OC)cc4)n3n2)cc1`, for which the RP-LC retention time was 943 s.

Regarding `Cc1cccc(NC(=O)N2[C@H]3CC[C@@H]2c2cncnc2C3)c1`, the RP-LC retention time came to 674 s.

`Cc1ccc(C)c(NS(=O)(=O)c2cc3c(s2)CCN(C(=O)C2CC2)C3)c1` registered an RP-LC retention time of 864 s.

Consider `Cc1cc(=O)n(CC(=O)NCCC2=CCCCC2)c(N2CCCCC2)n1`, for which the RP-LC retention time worked out at 734 s.

`COc1ccc(-c2cc(N3CCN(C(=O)NCC(C)C)CC3)ncn2)cc1OC` showed an RP-LC retention time of 623 s.

Compound `Cn1c(N2CCN(C(=O)c3ccc(F)c(F)c3)CC2)cc(=O)n(C)c1=O` displayed an RP-LC retention time of 656 s.

The compound `Cc1sc2nc(SCc3ccc(C(=O)NCCO)cc3)[nH]c(=O)c2c1C` registered an RP-LC retention time of 647 s.

As for `O=C(NCc1ccc(C(F)(F)F)cc1)c1c(O)c2cccnc2[nH]c1=O`, the RP-LC retention time was determined as 1010 s.

Compound `COC(=O)COC(=O)c1cn(-c2cccc(Cl)c2)c(=O)c2ccccc12` yielded an RP-LC retention time of 1010 s.

Compound `CCc1noc([C@@H]2CC(F)(F)CN2C(=O)c2ccco2)n1` registered an RP-LC retention time of 755 s.

With `Cc1cc(OCC(=O)N[C@@H](Cc2ccccc2)C(=O)O)c2c3c(c(=O)oc2c1)CCC3`, the RP-LC retention time is 835 s.

The compound `Cc1cccc(CN2CCCN(c3ncccc3-c3nc(C(C)C)no3)CC2)c1` showed an RP-LC retention time of 733 s.

Take `COc1ccc(CC(C)(O)CNC(=O)Nc2ccccc2OC)cc1` (stereo not drawn): the RP-LC retention time amounted to 750 s.

As to `COc1ccc2c(c1)c(CN1CCC(C(=O)NCc3ccccc3Cl)CC1)cn2C`, the RP-LC retention time came out at 699 s.

Compound `O=C(NCCc1c[nH]c2ccccc12)c1ccc(N2C(=O)CCS2(=O)=O)cc1Cl` yielded an RP-LC retention time of 777 s.

Values taken from the METLIN SMRT retention time set (Domingo-Almenara et al. 2019).
